According to US9708314B2, “Heterocyclic amide compound” (NISSAN CHEMICAL INDUSTRIES, LTD., priority 2013, dated 2017):

Assays:
Assay type in all cases: in vivo
Zea mays = test: Test Example 4: effect on crop by application to foliage (diluvial soil, plastic box); conditions: Application herbicide amount 320 g/ha; effect on crop
How it was run: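 Emulsion-formulated compound, diluted to a predetermined g/ha dose, applied by small sprayer to leaves and stems of 14-day-old seedlings grown in sterilized diluvial soil. Effect rated on 0–5 herbicidal-ratio scale three weeks on.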

[1] = system: Echinochloa crus-galli var. crus-galli; test: Test Example 3: herbicidal effect by application to foliage (Wagner pot, water depth 0.1-0.5 cm); conditions: Nineteenth Table; application to foliage; application herbicide amount 320 g/ha
How it was run: (§1)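 Rice-field weeds and directly sown rice were grown 14 days in flooded alluvial soil (water depth 0.1–0.5 cm) at 25–30 °C in a greenhouse. An emulsion formulation diluted to the stated g/ha rate was sprayed onto stems and leaves. Effects were scored on a 0–5 scale (herbicidal ratio bands) three weeks after treatment.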

Leptochloa chinensis = test: as above; conditions: Nineteenth Table; application to foliage; application herbicide amount 320 g/ha
How it was run: as §1

Cyperus difformis = test: as above; conditions: Nineteenth Table; application to foliage; application herbicide amount 320 g/ha
How it was run: as §1

SMILES | b (Zea mays) | H (herbicidal effect grade) [1] | D (herbicidal effect grade) (Leptochloa chinensis) | E (herbicidal effect grade) (Cyperus difformis)
Cc1nnc(NC(=O)c2ccc(C(F)(F)F)n3c(-c4ccc(Cl)nc4)nnc23)o1 [1-054] | 0 (Herbicidal ratio of 5% or less (almost no effect)) | 5 (Herbicidal ratio of 90% or more (almost completely withered)) | 5 (Herbicidal ratio of 90% or more (almost completely withered)) | 5 (Herbicidal ratio of 90% or more (almost completely withered))
Cc1nnc(NC(=O)c2ccc(C(F)(F)F)n3c(-c4cccc(Cl)n4)nnc23)o1 [1-055] | 0 (Herbicidal ratio of 5% or less (almost no effect)) | 5 (Herbicidal ratio of 90% or more (almost completely withered)) | 4 (Herbicidal ratio of 70% or more and less than 90%) | 5 (Herbicidal ratio of 90% or more (almost completely withered))
Cc1cc(-c2nnc3c(C(=O)Nc4nnc(C)o4)ccc(C(F)(F)F)n23)n(C)n1 [1-056] | 4 (Herbicidal ratio of 70% or more and less than 90%) | 5 (Herbicidal ratio of 90% or more (almost completely withered)) | 5 (Herbicidal ratio of 90% or more (almost completely withered)) | 5 (Herbicidal ratio of 90% or more (almost completely withered))
Cc1nnc(NC(=O)c2ccc(C(F)(F)F)n3c(-c4cccs4)nnc23)o1 [1-057] | 0 (Herbicidal ratio of 5% or less (almost no effect)) | 5 (Herbicidal ratio of 90% or more (almost completely withered)) | 5 (Herbicidal ratio of 90% or more (almost completely withered)) | 5 (Herbicidal ratio of 90% or more (almost completely withered))
Cc1nnc(NC(=O)c2ccc(C(F)(F)F)n3c(-c4cncs4)nnc23)o1 [1-058] | 5 (Herbicidal ratio of 90% or more (almost completely withered)) | 5 (Herbicidal ratio of 90% or more (almost completely withered)) | 5 (Herbicidal ratio of 90% or more (almost completely withered)) | 5 (Herbicidal ratio of 90% or more (almost completely withered))
C#CCSc1nnc2c(C(=O)Nc3nnc(C)o3)ccc(C(F)(F)F)n12 [1-065] | 0 (Herbicidal ratio of 5% or less (almost no effect)) | 3 (Herbicidal ratio of 40% or more and less than 70%) | 1 (Herbicidal ratio of 5% or more and less than 20%) | 3 (Herbicidal ratio of 40% or more and less than 70%)
Cc1nnc(NC(=O)c2ccc(C(F)(F)C(F)(F)F)n3c(C(C)C)nnc23)o1 [1-066] | 0 (Herbicidal ratio of 5% or less (almost no effect)) | 1 (Herbicidal ratio of 5% or more and less than 20%) | 4 (Herbicidal ratio of 70% or more and less than 90%) | 3 (Herbicidal ratio of 40% or more and less than 70%)
Cc1nnc(NC(=O)c2ccc(C(F)(F)F)n3c(CO)nnc23)o1 [1-067] | 2 (Herbicidal ratio of 20% or more and less than 40%) | 5 (Herbicidal ratio of 90% or more (almost completely withered)) | 5 (Herbicidal ratio of 90% or more (almost completely withered)) | 5 (Herbicidal ratio of 90% or more (almost completely withered))
Cc1nnc(NC(=O)c2ccc(C(F)(F)F)n3c(C=O)nnc23)o1 [1-068] | 2 (Herbicidal ratio of 20% or more and less than 40%) | 5 (Herbicidal ratio of 90% or more (almost completely withered)) | 5 (Herbicidal ratio of 90% or more (almost completely withered)) | 5 (Herbicidal ratio of 90% or more (almost completely withered))
COc1ccc(Cc2nnc3c(C(=O)Nc4nnc(C)o4)ccc(C(F)(F)F)n23)cc1 [1-069] | 0 (Herbicidal ratio of 5% or less (almost no effect)) | 5 (Herbicidal ratio of 90% or more (almost completely withered)) | 5 (Herbicidal ratio of 90% or more (almost completely withered)) | 5 (Herbicidal ratio of 90% or more (almost completely withered))
COc1cc(OC)cc(-c2nnc3c(C(=O)Nc4nnc(C)o4)ccc(C(F)(F)F)n23)c1 [1-070] | 0 (Herbicidal ratio of 5% or less (almost no effect)) | 4 (Herbicidal ratio of 70% or more and less than 90%) | 5 (Herbicidal ratio of 90% or more (almost completely withered)) | 5 (Herbicidal ratio of 90% or more (almost completely withered))
Cc1nnc(NC(=O)c2ccc(C(F)(F)F)n3c(-c4cc(Cl)cc(Cl)c4)nnc23)o1 [1-071] | 0 (Herbicidal ratio of 5% or less (almost no effect)) | 0 (Herbicidal ratio of 5% or less (almost no effect)) | 3 (Herbicidal ratio of 40% or more and less than 70%) | 5 (Herbicidal ratio of 90% or more (almost completely withered))
COCC[S+]([O-])c1nnc2c(C(=O)Nc3nnc(C)o3)ccc(C(F)(F)F)n12 (centres unmarked) [1-073] | 5 (Herbicidal ratio of 90% or more (almost completely withered)) | 5 (Herbicidal ratio of 90% or more (almost completely withered)) | 5 (Herbicidal ratio of 90% or more (almost completely withered)) | 5 (Herbicidal ratio of 90% or more (almost completely withered))
C=CC[S+]([O-])c1nnc2c(C(=O)Nc3nnc(C)o3)ccc(C(F)(F)F)n12 (centres unmarked) [1-074] | 0 (Herbicidal ratio of 5% or less (almost no effect)) | 5 (Herbicidal ratio of 90% or more (almost completely withered)) | 4 (Herbicidal ratio of 70% or more and less than 90%) | 3 (Herbicidal ratio of 40% or more and less than 70%)
Cc1nnc(NC(=O)c2cc(C)c(C(F)(F)F)n3c(C(C)C)nnc23)o1 [1-075] | 0 (Herbicidal ratio of 5% or less (almost no effect)) | 5 (Herbicidal ratio of 90% or more (almost completely withered)) | 4 (Herbicidal ratio of 70% or more and less than 90%) | 4 (Herbicidal ratio of 70% or more and less than 90%)
Cc1nnc(NC(=O)c2ccc(C(F)(F)F)n3c(N(C)C)nnc23)o1 [1-076] | 0 (Herbicidal ratio of 5% or less (almost no effect)) | 5 (Herbicidal ratio of 90% or more (almost completely withered)) | 5 (Herbicidal ratio of 90% or more (almost completely withered)) | 5 (Herbicidal ratio of 90% or more (almost completely withered))
C#CC[S+]([O-])c1nnc2c(C(=O)Nc3nnc(C)o3)ccc(C(F)(F)F)n12 (centres unmarked) [1-077] | 0 (Herbicidal ratio of 5% or less (almost no effect)) | 5 (Herbicidal ratio of 90% or more (almost completely withered)) | 4 (Herbicidal ratio of 70% or more and less than 90%) | 3 (Herbicidal ratio of 40% or more and less than 70%)
CSC(C)c1nnc2c(C(=O)Nc3nnc(C)o3)ccc(C(F)(F)F)n12 (centres unmarked) [1-078] | 4 (Herbicidal ratio of 70% or more and less than 90%) | 5 (Herbicidal ratio of 90% or more (almost completely withered)) | 5 (Herbicidal ratio of 90% or more (almost completely withered)) | 5 (Herbicidal ratio of 90% or more (almost completely withered))
Cc1nnc(NC(=O)c2ccc(C(F)(F)F)n3c(C(C)[S+](C)[O-])nnc23)o1 (centres unmarked) [1-079] | 4 (Herbicidal ratio of 70% or more and less than 90%) | 5 (Herbicidal ratio of 90% or more (almost completely withered)) | 5 (Herbicidal ratio of 90% or more (almost completely withered)) | 5 (Herbicidal ratio of 90% or more (almost completely withered))
Cc1nnc(NC(=O)c2ccc(C(F)(F)F)n3c(C(C)S(C)(=O)=O)nnc23)o1 (centres unmarked) [1-080] | 4 (Herbicidal ratio of 70% or more and less than 90%) | 5 (Herbicidal ratio of 90% or more (almost completely withered)) | 5 (Herbicidal ratio of 90% or more (almost completely withered)) | 5 (Herbicidal ratio of 90% or more (almost completely withered))
Cc1nnc(NC(=O)c2ccc(C(F)(F)F)n3c(Nc4ccccc4)nnc23)o1 [1-082] | 0 (Herbicidal ratio of 5% or less (almost no effect)) | 4 (Herbicidal ratio of 70% or more and less than 90%) | 4 (Herbicidal ratio of 70% or more and less than 90%) | 4 (Herbicidal ratio of 70% or more and less than 90%)
CSCCc1nnc2c(C(=O)Nc3nnc(C)o3)ccc(C(F)(F)F)n12 [1-083] | 1 (Herbicidal ratio of 5% or more and less than 20%) | 5 (Herbicidal ratio of 90% or more (almost completely withered)) | 5 (Herbicidal ratio of 90% or more (almost completely withered)) | 5 (Herbicidal ratio of 90% or more (almost completely withered))
Cc1nnc(NC(=O)c2ccc(C(F)(F)F)n3c(CC[S+](C)[O-])nnc23)o1 (centres unmarked) [1-084] | 3 (Herbicidal ratio of 40% or more and less than 70%) | 5 (Herbicidal ratio of 90% or more (almost completely withered)) | 5 (Herbicidal ratio of 90% or more (almost completely withered)) | 5 (Herbicidal ratio of 90% or more (almost completely withered))
